Laboratory results as given in patent US20240260573A1, “HEAT TOLERANCE-INDUCING AGENT FOR PLANTS AND METHOD FOR INDUCING HEAT TOLERANCE OF PLANTS” (AGC Inc., priority 2021, published 2024).

What was measured:
[1] = Measurement of active ingredient support ratio (solvent extraction / gas chromatography); format: physicochemical
Method: First, 5 g of a mixed solvent of chloroform:methanol=9:1 (volume ratio) was added to the vial containing the sample, and the mixture was stirred for one minute to extract the supported 2-hexenal. Hexadecane was then added as an internal standard, and the resulting mixture was filtered. The thus obtained filtrate (the extract solution containing the internal standard) was analyzed by gas chromatography, and the amount (mg) of supported 2-hexenal was calculated using a calibration curve prepared in advance using hexadecane as an internal standard. The support ratio (%) of 2-hexenal within 100% of the sample was determined from the calculated supported amount (mg) and the mass of the sample inside the vial.
With the exception that chloroform was added to the vial containing the sample to dissolve the sample, hexadecane was added to the resulting solution as an internal standard, and analysis was then conducted by gas chromatography (7890A apparatus manufactured by Agilent Technologies, Inc.), the support ratio (%) of 2-hexenal within 100% of the sample was determined in the same manner as that described above in [Evaluation 1a].
In Example 12, because 2-hexenal was used alone, the initial 2-hexenal support ratio was deemed to be 100%.
With the exception of using 3-hepten-2-one instead of 2-hexenal as the active ingredient, evaluations were conducted in the same manner as Example 1. […]

[2] = Measurement of active ingredient retention rate after 7 days open storage at 23° C. or 50° C.; format: physicochemical; conditions: for residual active ingredient after storage (in words): after 7 days storage at either 23° C. or 50° C.
Method: The vial containing the sample was stored, without a lid attached, in an environment at either 23° C. or 50° C. for a period of 7 days. Following this storage period, the support ratio (%) of 2-hexenal was determined in the same manner as that described above in [Evaluation 1a].
Based on the measurement results, the 2-hexenal retention rates following storage at 23° C. and at 50° C. were each calculated using the formula below. In the formula, the [initial 2-hexenal content] represents the value determined in the above “Measurement of 2-Hexenal Support Ratio”.
2-Hexenal retention rate (%)=2-hexenal support ratio (%) after storage/initial 2-hexenal support ratio (%)×100
The vial containing the sample was stored in an environment at either 23° C. or 50° C. for a period of 7 days. Following this storage period, the support ratio (%) of 2-hexenal was determined in the same manner as that described above in [Evaluation 2a].
Based on the measurement result, the 2-hexenal retention rate (%) was determined in the same manner as that described above in [Evaluation 1b].
The vial containing the sample was stored in an environment at either 23° C. or 50° C. for a period of 7 days. Following this storage period, the sample mass (g) remaining in the vial was measured, and this value was deemed the 2-hexenal support ratio (%) after storage.
With the exception of using 3-hepten-2-one instead of 2-hexenal as the active ingredient, evaluations were conducted in the same manner as Example 1.
An agent prepared by mixing trioxane and 3-hepten-2-one (in a mass ratio of 100:0.35) and then freeze drying the mixture was used as a heat tolerance-inducing agent, and evaluations were conducted in the same manner as Example 11.
Example 15 used 3-hepten-2-one alone as a heat tolerance-inducing agent. Evaluations were conducted in the same manner as Example 12.

[3] = sample for 23° C. storage, before storage
[4] = sample for 50° C. storage, before storage

| 3-hepten-2-one support ratio ([1]; 3-hepten-2-one used alone, evaluated as Example 12 (deemed 100%)) | 3-hepten-2-one support amount, Storage at 23° C., After 7 days ([2]; 23° C., 7 days) | 3-hepten-2-one support amount, Storage at 50° C., After 7 days ([2]; 50° C., 7 days) | 3-hepten-2-one retention rate 23° C. ([2]; after 7 days storage at 23° C.) | 3-hepten-2-one retention rate 50° C. ([2]; after 7 days storage at 50° C.) | 3-hepten-2-one support amount, Storage at 23° C., Initial [2, 3] | 3-hepten-2-one support amount, Storage at 50° C., Initial [2, 4] | 2-hexenal support ratio ([1]; 2-hexenal used alone, initial support ratio deemed to be 100%) | 2-hexenal support amount, Storage at 23° C., After 7 days ([2]; 23° C., 7 days, vial without lid) | 2-hexenal support amount, Storage at 50° C., After 7 days ([2]; 50° C., 7 days, vial without lid) | 2-hexenal retention rate 23° C. ([2]; after 7 days storage at 23° C.) | 2-hexenal retention rate 50° C. ([2]; after 7 days storage at 50° C.) | 2-hexenal support amount, Storage at 23° C., Initial [2, 3] | 2-hexenal support amount, Storage at 50° C., Initial [2, 4] | SMILES | residual active ingredient after storage (in words) [2] |
| --- | --- | --- | --- | --- | --- | --- | --- | --- | --- | --- | --- | --- | --- | --- | --- |
| 100% | 0 mg | 0 mg | 0% | 0% | 11.5 mg | 10.7 mg | – | – | – | – | – | – | – | CCCC=CC(C)=O [Example 15, 3-hepten-2-one] | no residual active ingredient was retained |
| – | – | – | – | – | – | – | 100% | 0 mg | 0 mg | 0% | 0% | 13 mg | 12.5 mg | CCCC=CC=O [Example 12, 2-hexenal] | no residual active ingredient was retained |
